Blank lines part the entries; values can stand above or below the molecule they belong to.
Experiments:
[1] = Brain-to-plasma concentration ratio in mice; format: in vivo, Female CD-1 mice; details: female, CD-1, mouse, ip, 25 mg/kg intraperitoneal, area under the curve of brain and plasma concentrations 0 to 60 minutes, read-out: B/P ratio
Description: The ability of the compounds of the invention to penetrate the brain was investigated by measuring their brain/plasma (B/P) ratio in mice following intraperitoneal administration.
Female CD-1 mice were used (n=3 for each time period) and received the compounds of the invention by intraperitoneal administration, in 25 mg/kg doses in a 0.5% NaHCO3 buffer (pH 8.3). At predefined intervals following said administration, i.e. 5, 15, 30 and 60 minutes, the mice were killed and both plasma and total brain tissue were collected.
Specifically, after anaesthesia with ether, the animals were bled by blood withdrawal from the abdominal aorta then immediately decapitated. The blood samples were collected into plasma separator tubes containing Li-Heparin as anticoagulant and centrifuged. The resulting plasma was then stored at -20 °C. The brain was rapidly removed from the cranium and weighed, subsequently frozen and stored at -20 °C before treatment by homogenization and HPLC analysis.
The plasma was thawed and mixed with an equal volume of the extraction solution.
1 ml of solution was then extracted by adding 20 µl of 70% HClO4, then centrifuged at 15,500g for 5 minutes and injected into the HPLC.
Each brain was thawed and homogenized with the extraction solution to provide a final composition of 4 ml/1g of tissue by means of an Ultra-Turrax blender and sonicated for 5 minutes. After centrifugation of the homogenate at 15,500g for 5 minutes, the resulting solution was treated with HClO4, as indicated for the plasma. Specific chromatographic conditions had been developed for each analyte, the calibration curve being constructed for plasma and brain homogenate.

[2] = TEAC method (Trolox Equivalent Antioxidant Capacity Assay); format: biochemical; details: ratio of gradient to gradient of Trolox; 650 nm, 37 °C, about 90 minutes
Source text: This assay is used to measure the total antioxidant activity of pure substances, biological fluids and plant compounds and is based on the reaction of antioxidants with the cation radical ABTS·^+ (2,2'-azinobis(3-ethylbenzothiazolin-6-sulphonate)). This cation radical is metastable and has to be generated just before the experiment by reacting ABTS with hydrogen peroxide in the presence of HRP. This radical can be reduced, with consequent loss of absorbance, by an antioxidant whose scavenging capacity can be measured spectrophotometrically at 650 nm. The test is carried out at 37 °C and the results are obtained from a comparison with Trolox (a synthetic antioxidant and hydrophilic analogue of vitamin E).
The ABTS solution S1 was prepared as follows: • 20 mg of ABTS were added to 50 mM of citric acid buffer (40 ml) at pH=4.5 and to the resulting solution there was added an aqueous solution of HRP (4.4 mg, 400 µl) and an aqueous solution of H2O2 (10 µl of a 30% solution diluted with 16.3 ml of water).
For each of the compounds (1)-(11), as synthesized above, there was prepared a 600 µM solution in water, methanol or DMSO according to its solubility, as well as a Trolox solution as reference.
Each solution was diluted to produce 6 solutions each at a concentration between 25 µM and 300 µM. From each of the diluted and divided solutions, there were withdrawn 20 µl to which 200 µl of solution S1 were then added.
The decrease in absorbance of each solution thus obtained was monitored at 650 nm until a stable value was reached (about 90 minutes).
For each set of 6 solutions and for the reference trolox solution, the absorption was given in graph form as a function of the amount of compound (nmol) in the solution. The gradient of the straight line obtained by linear interpolation was determined according to the least squares method. The TEAC value of each compound of the invention is given in the table below and is expressed as the ratio between the gradient of the resulting straight line and the gradient of the reference (trolox) straight line.

[3] = Acid dissociation constants (pKa) by titration; format: physicochemical; details: pH at semi-neutralization point of titration with 0.1 N NaOH or HCl
Description: The following equipment was used during the implementation of all the examples: • for melting point determination a Buchi B-540 instrument was used; • the pKa is the pH at the semi-neutralization point of titration using a Mettler Toledo DL-50 instrument with a 0.1 N NaOH or HC! solution; • the ^1H-NMR spectra were recorded at 300 MHz and the ^13C-NMR spectra were recorded at 75 MHz using a Varian Unity 300 instrument; • spectrophotometric measurements were carried out using a Lambda Perkin Elmer 15 UV/Vis spectrophotometer for the DPPH assay and a Wallac Victor 1420 multilabel counter spectrophotometer.

[4] = tested on: C6 cells (rat glioma) and BAEC cells (bovine aortic endothelial); assay: In vitro inhibition of CHP-induced oxidative stress (DCF fluorescence); format: cell-based; details: 500 µM CHP, 4, 20, 100 and 500 µM compound, 30 minutes; depending on the concentrations and cell line
Description: The method used was essentially the one reported by Rüweler M. et al. ("Inhibition of peroxide-induced radical generation by plant polyphenols in C6 astroglioma cells" (2008) Toxicol in vitro 22, 1377-81), with a few minor modifications.
The cells were seeded in phenol-red free DMEM (Sigma Aldrich) into 96-well plates with 5% FBS and 20 mM HEPES at a density of 40,000 cells/well. After 48 hours, the medium was substituted by HBSS (Hanks' Balanced Salt Solution, Sigma) containing 10 µM of dihydro-2',7'-dichlorofluorescein diacetate (H2DCF-DA, Sigma Aldrich) and incubated in darkness for 30 minutes at 37 °C, in order to load the cells with fluorescent dye. H2DCF-DA was hydrolyzed enzymatically by the intracellular esterases to form non-fluorescent H2DCF, which was then rapidly oxidized to form 2',7'-dichlorofluorescein (DCF) being highly fluorescent in the presence of reactive species (RS). The intensity of DCF fluorescence is directly proportional to the amount of RS formed.
After carrying out two washes, the cells were exposed to 500 µM of CHP and various concentrations (4, 20, 100 and 500 µM) of the compounds of the invention for 30 minutes at 37 °C. Fluorescence was then measured, after cell washing, by a microplate reader at an excitation wavelength of 485 nm and an emission wavelength of 535 nm.
Six wells per plate per concentration of test composition (compound + CHP) and per control (HBSS without CHP) were measured and 12 wells were used as reference for CHP-induced stress. In addition, each 96-well plate contained 6 wells that received the highest concentration of the tested compounds without CHP, to investigate whether the compounds of the invention alone were able to induce cellular radical formation.
When using this assay, it should be borne in mind that DCF fluorescence is a generalized indicator of oxidative stress rather than of any particular reactive species, i.e. it is not a direct assay for H2O2 or other reactive species (Halliwell B, Whiteman M. (2004) "Measuring reactive species and oxidative damage in vivo and in cell culture: how should you do it and what do the results mean?" Br. J. Pharmacol. 142 231-255). Therefore, when an increase in DCF fluorescence induced by exposure of cells to CHP was measured, as was carried out in these assays, it was not possible to deduce which reactive species was responsible. Inhibition of CHP-induced fluorescence was evaluated by means of different concentrations of the compounds of the invention and comparative compounds such as Trolox and edaravone.

[5] = tested on: healthy animals; assay: Effect of the compounds on healthy animals (same in vivo assay, cerebral oxidative parameters); design: species or system mice; details: healthy mice; for Average % variation with respect to the vehicle: 50 mg/kg IP for three consecutive days, mean over all parameters, D = doxorubicin alone; for Brain/BWi / CAT/pr / GPX/pr / GSH/pr / GST/pr / Prot. Hmg / Prot. Ox/pr / SOD/pr: 50 mg/kg IP x3 days, percentage change relative to the vehicle
Description: (§1) 10 mice were used for each treatment group. For each compound 50 mg/kg were administered intraperitoneally (IP) for three consecutive days (day 0, 1 and 2); half the animals (5) also received IP 16.7 mg/kg of doxorubicin immediately after the first treatment (day 0). On the day after the last administration (day 3) the animals were killed by neck dislocation and the brains were removed, weighed and frozen in liquid nitrogen.
(§2) For the analyses of oxidative stress, 100 mg/ml of brain homogenate was prepared in HEB^(*) buffer (pH 7.4 EDTA/HEPES^(**)) containing a mixture of enzyme inhibitors (Leupeptin, Pepstatin, Aprotinin, BHA).
(§3) The evaluation parameters were: • BrW/BWi: ratio between final brain weight and initial body weight (day 0); • Prot. Hmg: total proteins in the homogenate (BCA method, i.e. bicinchoninic acid); • Prot. Ox: oxidized proteins in the Hmg by means of a colorimetric method using dinitrophenylhydrazone (DNPH); • GSH: reduced glutathione in the supernatant (sn) of the Hmg, obtained after precipitation with metaphosphoric acid (MPA), by means of a colorimetric method using dithiodinitrobenzene (DTNB); • CAT: catalase in the Hmg by a colorimetric method using potassium dichromate; • SOD: superoxide dismutase by a colorimetric method using SOD Reagent (xanthine, EDTA, nitroblue tetrazole, Na2CO3, BSA, i.e. bovine serum albumin); • GST: glutathione S-transferase in the supernatant by a colorimetric method using chlorodinitrobenzene (CDNB) and GSH; and • GPx: glutathione peroxidase in the supernatant after addition of GSH and t-BuOOH, heating and precipitation with MPA; followed by GSH method with DTNB. The assay was performed on the compounds (1)-(5) and (7)-(11) and on edaravone (E), as comparative compound.
The mean % effect, on all the parameters simultaneously, of the triple treatment in healthy animal, as mean percentage change relative to the vehicle. This value is useful as an approximate safety index of the oxidative state of the brain, i.e. the capacity of the compounds of the invention not to alter cerebral homeostasis in healthy animals.

[6] = tested on: doxorubicin-induced cerebral oxidative stress in mice; assay: In vivo assay of cerebral oxidative stress induced in mice by doxorubicin (model and oxidized animals); details: % incidence of D relative to V
Description: The assay was carried out on compounds (1)-(5) and (7)-(11) and on edaravone (E) as comparative compound.
as §1, §2, §3
The mean effect (n=5 experiments) of doxorubicin (D), i.e. "oxidized" animal, relative to the vehicle (V), the vehicle representing the healthy animal.
All the parameters, with the exclusion of Brain/BWi and Prot. Hmg, were normalized for total Hmg proteins. The D value standard deviations and the % incidence relative to V are given in italics.
The effect of the tested compounds on the "oxidized" animals was given as % inhibition relative to the percentage change due to doxorubicin alone. The effect of the compounds on the oxidized animals can be expressed both as a function of the values of the vehicle (healthy, vehicle only) and as a function of the value of its own (healthy, compound only): • Vehicle: percentage [(Compound+D)/V]x100/[(V+D)/V]x100 • Its own: percentage [(Compound+D)/Compound]x100/[(V+D)/V]x100
Again in this case, the mean % effect relative to doxorubicin alone could be given for all the parameters simultaneously, as an approximate index of effectiveness on the cerebral oxidative state of the animal.

Kp [1]: > 0.1
pKa1 [3]: 3.35
pKa2 [3]: 6.83
Average % variation with respect to the vehicle [5]: -7.0%
SMILES: CC1(C)CC(=O)C(C2CC(C)(C)CCN2O)C(=O)C1 (centres unmarked) [(1), 2-(1-hydroxy-4,4-dimethylpiperidin-2-yl)-5,5-dimethylcyclohexane-1,3-dione]
TEAC [2]: 1.0
Inhibition of CHP-induced fluorescence [4]: effective

Kp [1]: > 0.1
pKa1 [3]: 3.21
pKa2 [3]: 6.85
Average % variation with respect to the vehicle ([5]; listed as V+(2), 50 mg/kg): 3.6%
Brain/BWi [5]: 7.6%
CAT/pr [5]: -2.9%
GPX/pr [5]: 6.6%
GSH/pr [5]: 6.1%
GST/pr [5]: 5.8%
Prot. Hmg [5]: -2.2%
Prot. Ox/pr [5]: -3.7%
SOD/pr [5]: -0.2%
SMILES: CC1(C)CCN(O)C(C2C(=O)CC(c3ccccc3)CC2=O)C1 (centres unmarked) [(2), 2-(1-hydroxy-4,4-dimethylpiperidin-2-yl)-5-phenylcyclohexane-1,3-dione]
TEAC [2]: 0.6
Average % variation with respect to the vehicle ([5]; 50 mg/kg): did not significantly alter the parameters

pKa1 [3]: 3.00
pKa2 [3]: 6.39
SMILES: O=C1CCCC(=O)C1C1COCCN1O (centres unmarked) [(6), 2-(4-hydroxymorpholin-3-yl)-cyclohexane-1,3-dione]
TEAC [2]: 1.1

pKa1 [3]: 2.85
pKa2 [3]: 5.71
Average % variation with respect to the vehicle [5]: -9.9%
SMILES: Cc1cc(O)c(C2COCCN2O)c(=O)o1 (centres unmarked) [(9), 4-hydroxy-3-(4-hydroxymorpholin-3-yl)-6-methyl-2H-pyran-2-one]
TEAC [2]: 1.2

The remaining lines, values behind:

SMILES: Cc1c(C)c2c(c(C)c1O)CCC(C)(C(=O)O)O2 (centres unmarked) [Trolox, reference compound]
Inhibition of CHP-induced fluorescence [4]: 10-50%

SMILES: COc1cccc2c1C(=O)c1c(O)c3c(c(O)c1C2=O)C[C@@](O)(C(=O)CO)C[C@@H]3O[C@H]1C[C@H](N)[C@H](O)[C@H](C)O1 [doxorubicin, reference compound]
%D Brain/BWi [6]: 93.1%
%D CAT [6]: 86.8%
%D GPX [6]: 90.1%
%D GSH [6]: 87.5%
%D GST [6]: 90.9%
%D Prot. Hmg [6]: 108.3%
%D Prot. Ox [6]: 117.2%
%D SOD [6]: 85.7%
Average % variation with respect to the vehicle [5]: -11.4%
CAT/pr [5]: -13.2%
GPX/pr [5]: -9.9%
GSH/pr [5]: -12.5%
GST/pr [5]: -9.1%
Prot. Hmg [5]: 8.3%
Prot. Ox/pr [5]: 17.2%
SOD/pr [5]: -14.3%
Brain/BWi ([5]; 50 mg/kg): 6.9%
Brain/BWi ([5]; listed as D, 50 mg/kg): -6.9%

SMILES: O=C1O[C@H]([C@@H](O)CO)C(O)=C1O [vitamin C, reference compound]
TEAC [2]: 0.9
